Several values for one entry are separate records, joined by “and”; a condition that tells them apart may be missing. Equal values may be shown once.
Tests used:
Assay type in all cases: biochemical
TMPRSS2 = TMPRSS2 (Homo sapiens, UniProt O15393); assay: PS-SCL / HyCoSuL substrate specificity screening, TMPRSS2; conditions: for P2 Position Substrate Activity for TMPRSS2 (percent substrate cleavage/proteolysis): residue fixed at P2 position of substrate library; for P3 Position Various Amino Acids Substrate Activity, TMPRSS2 (percent substrate cleavage/proteolysis) / P3 Position Substrate Activity for TMPRSS2 (percent substrate cleavage/proteolysis): residue fixed at P3 position of substrate library
matriptase = target: T1, matriptase (Homo sapiens, UniProt Q9Y5Y6); assay: HyCoSuL P4-P2 substrate specificity screening, matriptase; conditions: for P2 Position Substrate Activity for matriptase (percent substrate cleavage/proteolysis): residue fixed at P2 position; for P3 Position Various Amino Acids Substrate Activity, matriptase (percent substrate cleavage/proteolysis): residue fixed at P3 position of substrate library; for P4 Position Various Amino Acids Substrate Activity, matriptase (percent substrate proteolysis/cleavage): residue fixed at P4 position of substrate library; for P3 Position Substrate Activity for matriptase (percent substrate cleavage/proteolysis): residue fixed at P3 position
T1 sequence (Q9Y5Y6 1-855): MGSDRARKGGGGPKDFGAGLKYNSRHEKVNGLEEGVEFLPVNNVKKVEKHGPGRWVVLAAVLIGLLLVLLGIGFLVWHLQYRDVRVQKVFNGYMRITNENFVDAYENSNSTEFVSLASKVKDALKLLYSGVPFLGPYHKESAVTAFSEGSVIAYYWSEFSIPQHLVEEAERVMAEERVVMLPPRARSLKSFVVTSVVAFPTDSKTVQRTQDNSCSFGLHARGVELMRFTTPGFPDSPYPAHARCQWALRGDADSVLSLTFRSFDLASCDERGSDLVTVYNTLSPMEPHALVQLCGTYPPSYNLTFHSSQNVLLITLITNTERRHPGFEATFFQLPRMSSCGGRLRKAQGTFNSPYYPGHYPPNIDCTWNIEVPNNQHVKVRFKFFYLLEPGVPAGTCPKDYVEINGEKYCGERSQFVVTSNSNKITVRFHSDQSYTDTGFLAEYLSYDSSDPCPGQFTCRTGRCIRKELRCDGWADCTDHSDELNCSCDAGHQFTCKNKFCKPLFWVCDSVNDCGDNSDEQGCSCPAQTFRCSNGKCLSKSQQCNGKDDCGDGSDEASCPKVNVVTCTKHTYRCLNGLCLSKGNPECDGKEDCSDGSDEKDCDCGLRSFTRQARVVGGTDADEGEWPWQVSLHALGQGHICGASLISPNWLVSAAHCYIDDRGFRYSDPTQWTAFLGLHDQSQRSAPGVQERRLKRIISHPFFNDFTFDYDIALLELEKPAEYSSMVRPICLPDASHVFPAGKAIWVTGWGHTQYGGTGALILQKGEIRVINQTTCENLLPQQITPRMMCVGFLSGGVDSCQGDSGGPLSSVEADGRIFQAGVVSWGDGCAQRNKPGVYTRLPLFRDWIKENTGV

hepsin = target: T2, hepsin (Homo sapiens, UniProt P05981); assay: HyCoSuL P4-P2 substrate specificity screening, hepsin; conditions: for P2 Position Substrate Activity for hepsin (percent substrate cleavage/proteolysis): residue fixed at P2 position; for P3 Position Various Amino Acids Substrate Activity, hepsin (percent substrate cleavage/proteolysis): residue fixed at P3 position of substrate library; for P4 Position Various Amino Acids Substrate Activity, hepsin (percent substrate proteolysis/cleavage): residue fixed at P4 position of substrate library; for P3 Position Substrate Activity for hepsin (percent substrate cleavage/proteolysis): residue fixed at P3 position
T2 construct: purchased R&D Systems 4776-SE-010

HGFA = target: T3, HGFA (Homo sapiens, UniProt Q04756); assay: HyCoSuL P4-P2 substrate specificity screening, HGFA; conditions: for P2 Position Substrate Activity for HGFA (percent substrate cleavage/proteolysis): residue fixed at P2 position; for P3 Position Various Amino Acids Substrate Activity, HGFA (percent substrate cleavage/proteolysis): residue fixed at P3 position of substrate library; for P4 Position Various Amino Acids Substrate Activity, HGFA (percent substrate proteolysis/cleavage): residue fixed at P4 position of substrate library; for P3 Position Substrate Activity for HGFA (percent substrate cleavage/proteolysis): residue fixed at P3 position
T3 sequence (Q04756 373-655): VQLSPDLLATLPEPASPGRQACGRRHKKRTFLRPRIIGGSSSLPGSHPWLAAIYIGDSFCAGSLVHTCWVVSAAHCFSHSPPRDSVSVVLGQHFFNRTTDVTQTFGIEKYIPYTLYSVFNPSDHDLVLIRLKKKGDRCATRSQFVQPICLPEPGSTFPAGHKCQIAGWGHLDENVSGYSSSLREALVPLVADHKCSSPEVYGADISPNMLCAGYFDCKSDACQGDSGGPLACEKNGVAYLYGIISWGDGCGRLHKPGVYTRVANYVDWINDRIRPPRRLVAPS

[1] = best recognized amino acid set to 100%
[2] = residue fixed at P4 position of substrate library
[3] = P1-Arg HyCoSuL, 100 μM, best recognized amino acid set to 100%
[4] = residue fixed at P4 position, P1-Arg HyCoSuL, 100 μM, best recognized amino acid set to 100%

Sequence of TMPRSS2 (O15393 whole entry): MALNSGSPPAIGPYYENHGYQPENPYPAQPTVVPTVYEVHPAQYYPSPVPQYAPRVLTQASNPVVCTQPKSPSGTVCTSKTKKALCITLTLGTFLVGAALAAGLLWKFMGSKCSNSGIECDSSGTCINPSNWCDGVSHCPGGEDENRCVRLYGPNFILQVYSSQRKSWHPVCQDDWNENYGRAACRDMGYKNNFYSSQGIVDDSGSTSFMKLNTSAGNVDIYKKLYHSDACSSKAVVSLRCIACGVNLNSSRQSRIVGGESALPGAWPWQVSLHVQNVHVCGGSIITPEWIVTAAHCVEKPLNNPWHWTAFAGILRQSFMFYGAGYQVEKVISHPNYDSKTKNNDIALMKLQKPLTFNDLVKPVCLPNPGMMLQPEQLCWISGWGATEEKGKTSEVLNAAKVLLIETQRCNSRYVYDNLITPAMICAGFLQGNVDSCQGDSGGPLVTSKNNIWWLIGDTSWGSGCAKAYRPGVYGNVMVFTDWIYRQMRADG
T2 sequence (P05981 163-417 limits assumed): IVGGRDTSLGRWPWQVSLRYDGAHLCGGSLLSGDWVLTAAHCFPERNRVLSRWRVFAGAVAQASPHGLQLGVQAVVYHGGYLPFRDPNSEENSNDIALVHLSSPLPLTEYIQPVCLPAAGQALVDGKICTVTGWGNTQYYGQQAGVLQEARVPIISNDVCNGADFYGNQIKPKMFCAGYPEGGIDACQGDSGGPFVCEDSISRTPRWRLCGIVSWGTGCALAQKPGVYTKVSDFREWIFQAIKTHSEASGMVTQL
T2 sequence (P05981 1-162 partner limits assumed): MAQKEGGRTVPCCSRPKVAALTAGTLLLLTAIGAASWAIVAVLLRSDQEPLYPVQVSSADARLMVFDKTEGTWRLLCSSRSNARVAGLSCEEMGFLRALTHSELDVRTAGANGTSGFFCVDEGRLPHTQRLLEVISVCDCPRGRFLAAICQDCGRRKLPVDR

Molecule | P2 Position Substrate Activity for TMPRSS2 (percent substrate cleavage/proteolysis) (TMPRSS2; [1]) | P3 Position Various Amino Acids Substrate Activity, TMPRSS2 (percent substrate cleavage/proteolysis) (TMPRSS2) | P4 Position Various Amino Acids Substrate Activity, TMPRSS2 (percent substrate proteolysis/cleavage) (TMPRSS2; [2]) | P2 Position Substrate Activity for matriptase (percent substrate cleavage/proteolysis) (matriptase; [3]) | P3 Position Various Amino Acids Substrate Activity, matriptase (percent substrate cleavage/proteolysis) (matriptase) | P4 Position Various Amino Acids Substrate Activity, matriptase (percent substrate proteolysis/cleavage) (matriptase) | P2 Position Substrate Activity for hepsin (percent substrate cleavage/proteolysis) (hepsin; [3]) | P3 Position Various Amino Acids Substrate Activity, hepsin (percent substrate cleavage/proteolysis) (hepsin) | P4 Position Various Amino Acids Substrate Activity, hepsin (percent substrate proteolysis/cleavage) (hepsin) | P2 Position Substrate Activity for HGFA (percent substrate cleavage/proteolysis) (HGFA; [3]) | P3 Position Various Amino Acids Substrate Activity, HGFA (percent substrate cleavage/proteolysis) (HGFA) | P4 Position Various Amino Acids Substrate Activity, HGFA (percent substrate proteolysis/cleavage) (HGFA) | P3 Position Substrate Activity for TMPRSS2 (percent substrate cleavage/proteolysis) (TMPRSS2; [1]) | P4 Position Substrate Activity for TMPRSS2 (percent substrate cleavage/proteolysis) (TMPRSS2; residue fixed at P4 position of substrate library, best recognized amino acid set to 100%) | P3 Position Substrate Activity for matriptase (percent substrate cleavage/proteolysis) (matriptase; [3]) | P4 Position Substrate Activity for matriptase (percent substrate cleavage/proteolysis) (matriptase; [4]) | P3 Position Substrate Activity for hepsin (percent substrate cleavage/proteolysis) (hepsin; [3]) | P4 Position Substrate Activity for hepsin (percent substrate cleavage/proteolysis) (hepsin; [4]) | P3 Position Substrate Activity for HGFA (percent substrate cleavage/proteolysis) (HGFA; [3]) | P4 Position Substrate Activity for HGFA (percent substrate cleavage/proteolysis) (HGFA; [4])
L-Ser | 19.86% | 35.95% | 20.12% | 28% | 33% | 19% | 18.40% | 38.70% | 31.63% | 3.24% | 14.57% | 7.04% |  |  |  |  |  |  |  | 
L-Phe | 95.60% | 14.74% | 31.64% | 39% | 19% | 14% | 25.22% | 2.91% | 30.80% | 16.60% | 13.51% | 9.42% |  |  |  |  |  |  |  | 
L-Orn | 0.00% |  |  | 4% | 74% | 82% | 78.48% |  |  | 0.00% |  |  | 22.76% | 12.33% | 73.75% and 62.39% | 82.42% | 79.70% | 84.52% | 54.04% | 20.23%
Cn1cc(C[C@H](N)C(=O)O)c2ccccc21 [L-Trp(Me)] | 32.33% | 21.50% | 16.80% | 1% | 7% | 6% | 7.81% | 0.00% | 0.00% | 1.12% | 18.14% | 2.49% |  |  |  |  |  |  |  | 
D-Trp | 0.00% |  | 22.02% | 0% | 5% | 5% | 0.00% |  | 1.48% | 0.00% |  | 7.65% | 31.94% |  | 76.43% |  | 24.90% |  | 87.59% | 
D-Lys | 0.00% |  | 16.31% | 0% | 15% | 14% | 0.00% |  | 49.84% | 0.00% |  | 17.66% | 0.00% |  | 14.70% |  | 64.56% |  | 21.11% | 
L-Ala | 25.14% | 31.84% | 26.30% | 28% | 34% | 31% | 17.85% | 28.07% | 41.30% | 2.37% | 8.97% | 6.68% |  |  |  |  |  |  |  | 
